This is an account of results in ChEMBL document CHEMBL1201862, “PubChem BioAssay data set” (2004).

For orientation: IC50 means the concentration at which inhibition is half-maximal. As a reminder, the Ki is the dissociation constant of the complex between target and ligand, obtained from inhibition or displacement.

Each structure is given as a SMILES string. Activity calls are given as the source filed them.

The target of assay [1] is T1, Carboxy-terminal domain RNA polymerase II polypeptide A small phosphatase 1 (Homo sapiens, UniProt Q9GZU7).
T1 sequence (Q9GZU7 whole entry): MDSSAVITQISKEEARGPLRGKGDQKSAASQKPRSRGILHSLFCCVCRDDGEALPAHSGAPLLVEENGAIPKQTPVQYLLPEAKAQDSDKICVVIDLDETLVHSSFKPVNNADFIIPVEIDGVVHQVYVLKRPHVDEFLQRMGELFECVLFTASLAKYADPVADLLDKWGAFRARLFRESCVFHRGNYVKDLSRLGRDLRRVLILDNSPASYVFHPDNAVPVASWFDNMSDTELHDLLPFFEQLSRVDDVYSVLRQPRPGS
The assay can be described thus: inhibitors of CTDSP1, concentration-response testing, biochemical assay, absorbance-based, actives from ultra-high-throughput screening (AID 540297). Format: functional.

Another assay addresses Prothrombin (Bos taurus, UniProt P00735). The assay can be described thus: thrombin inhibition, dose response, biochemical, fluorescence polarization, uHTS hits (AID 602369). In kind it is functional. On the technique in general: In fluorescence polarisation assays a small probe gives low polarisation when free and higher when bound to something large.
Assay [2] addresses 26S proteasome non-ATPase regulatory subunit 14 (Homo sapiens, UniProt O00487). The assay can be described thus: inhibition of proteasome subunit RPN11 – biochemical, fluorescence polarization, uHTS hits, confirmation (AID 602368). Format: functional.
For assay [3], the target named is 72 kDa type IV collagenase (Homo sapiens, UniProt P08253). The assay can be described thus: Dose Response validation of uHTS RPN11 inhibitor hits using a MMP-2 Fluorescence assay. In kind it is functional.
The target in assay [4] is T2, High affinity choline transporter 1 (Homo sapiens, UniProt Q9GZV3).
T2 sequence (Q9GZV3 whole entry): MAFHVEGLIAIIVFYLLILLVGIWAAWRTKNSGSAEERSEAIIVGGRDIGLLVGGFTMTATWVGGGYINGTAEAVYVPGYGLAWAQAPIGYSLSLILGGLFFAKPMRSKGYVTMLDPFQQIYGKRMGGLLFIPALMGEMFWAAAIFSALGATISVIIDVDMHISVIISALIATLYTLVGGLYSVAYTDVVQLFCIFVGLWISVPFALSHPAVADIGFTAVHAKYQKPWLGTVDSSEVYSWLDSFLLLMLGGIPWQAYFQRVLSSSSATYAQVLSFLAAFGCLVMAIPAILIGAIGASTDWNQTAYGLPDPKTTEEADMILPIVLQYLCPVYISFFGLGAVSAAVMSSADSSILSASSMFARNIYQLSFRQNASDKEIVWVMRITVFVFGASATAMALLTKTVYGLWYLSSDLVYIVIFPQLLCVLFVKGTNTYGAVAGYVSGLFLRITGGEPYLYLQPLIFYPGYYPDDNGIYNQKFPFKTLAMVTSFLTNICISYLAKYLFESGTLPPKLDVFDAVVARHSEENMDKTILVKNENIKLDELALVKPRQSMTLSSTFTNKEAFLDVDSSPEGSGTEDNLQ
The assay can be described thus: CHT inhibitors, dose response, cell-based, 10-point CRC, membrane potential dye (AID 588401).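 Also: membrane potential dye fluorescence of choline-evoked depolarization via CHT.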 Format: functional.

The target in assay [5] is T2, High affinity choline transporter 1. The assay can be described thus: CHT inhibitors, dose response, cell-based, 5-point CRC, membrane potential dye (AID 504840). In kind it is functional.
A further assay addresses Melanocortin receptor 4 (Homo sapiens, UniProt P32245). The assay can be described thus: MC4R antagonist potency on cAMP, dose response, cell-based, TR-FRET, biased antagonists (AID 602298).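 Also: antagonist potency against agonist-stimulated cAMP production.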 Format: functional.
The nature of assay [6]: nonselective inhibitors of cellular cAMP signaling, dose response, counter-screen for MC4R biased antagonist project, cell-based, TR-FRET cAMP detection (AID 602305).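 Also: U2OS cells stimulated with forskolin near its EC80 as the cAMP inducer; potency is for inhibition of forskolin-stimulated cAMP signaling.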 In kind it is functional. In general terms: Counterscreens check selectivity or assay interference.
Assay [7] is described as follows: A cytotoxicity screen of small molecule inhibitors of the PhoP region in Salmonella typhi identified in the primary screen. [Related pubchem assays: 1850, 1864, 1985 ]. Format: functional.
For assay [8], the target named is Mitogen-activated protein kinase kinase kinase kinase 4 (Homo sapiens, UniProt O95819). In kind it is functional.
Assay [9] has as its target cAMP-dependent protein kinase catalytic subunit alpha (Homo sapiens, UniProt P17612). Format: functional.
Assay [10] concerns the target Serine/threonine-protein kinase pim-1 (Homo sapiens, UniProt P11309). Format: functional.
The target in assay [11] is MAP kinase-interacting serine/threonine-protein kinase 2 (Homo sapiens, UniProt Q9HBH9). Format: functional.
In assay [12] the target is Cell division cycle 7-related protein kinase (Homo sapiens, UniProt O00311). In kind it is functional.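 Also: value obtained from a kinome-wide kinase panel.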
Assay [13] has as its target Glycogen synthase kinase-3 beta (Homo sapiens, UniProt P49841). In kind it is functional.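 Also: value comes from a broad kinome profiling panel, with GSK3B as the panel member.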
Assay [14] concerns the target Dual specificity protein kinase CLK4 (Homo sapiens, UniProt Q9HAZ1). Format: functional.
Assay [15] has as its target T3, Interleukin-1 receptor-associated kinase 4 (Homo sapiens, UniProt Q9NWZ3).
T3 sequence (Q9NWZ3 whole entry): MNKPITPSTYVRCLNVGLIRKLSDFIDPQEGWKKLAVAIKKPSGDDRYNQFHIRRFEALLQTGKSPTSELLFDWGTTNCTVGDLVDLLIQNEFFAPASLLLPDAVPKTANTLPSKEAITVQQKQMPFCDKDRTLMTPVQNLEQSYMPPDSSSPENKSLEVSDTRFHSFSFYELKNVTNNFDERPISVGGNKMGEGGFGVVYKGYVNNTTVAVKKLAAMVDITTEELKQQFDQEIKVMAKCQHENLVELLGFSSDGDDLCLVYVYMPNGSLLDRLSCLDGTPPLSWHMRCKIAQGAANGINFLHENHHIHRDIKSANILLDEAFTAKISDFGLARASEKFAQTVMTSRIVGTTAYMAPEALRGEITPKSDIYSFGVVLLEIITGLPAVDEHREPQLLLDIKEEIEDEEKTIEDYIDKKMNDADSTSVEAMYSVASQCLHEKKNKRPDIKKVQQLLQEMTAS
In kind it is functional.

Assay [16] deals with Homeodomain-interacting protein kinase 2 (Homo sapiens, UniProt Q9H2X6). Format: functional.
Assay [17] deals with T4, Apoptotic protease-activating factor 1 (Homo sapiens, UniProt O14727).
T4 sequence (O14727 whole entry): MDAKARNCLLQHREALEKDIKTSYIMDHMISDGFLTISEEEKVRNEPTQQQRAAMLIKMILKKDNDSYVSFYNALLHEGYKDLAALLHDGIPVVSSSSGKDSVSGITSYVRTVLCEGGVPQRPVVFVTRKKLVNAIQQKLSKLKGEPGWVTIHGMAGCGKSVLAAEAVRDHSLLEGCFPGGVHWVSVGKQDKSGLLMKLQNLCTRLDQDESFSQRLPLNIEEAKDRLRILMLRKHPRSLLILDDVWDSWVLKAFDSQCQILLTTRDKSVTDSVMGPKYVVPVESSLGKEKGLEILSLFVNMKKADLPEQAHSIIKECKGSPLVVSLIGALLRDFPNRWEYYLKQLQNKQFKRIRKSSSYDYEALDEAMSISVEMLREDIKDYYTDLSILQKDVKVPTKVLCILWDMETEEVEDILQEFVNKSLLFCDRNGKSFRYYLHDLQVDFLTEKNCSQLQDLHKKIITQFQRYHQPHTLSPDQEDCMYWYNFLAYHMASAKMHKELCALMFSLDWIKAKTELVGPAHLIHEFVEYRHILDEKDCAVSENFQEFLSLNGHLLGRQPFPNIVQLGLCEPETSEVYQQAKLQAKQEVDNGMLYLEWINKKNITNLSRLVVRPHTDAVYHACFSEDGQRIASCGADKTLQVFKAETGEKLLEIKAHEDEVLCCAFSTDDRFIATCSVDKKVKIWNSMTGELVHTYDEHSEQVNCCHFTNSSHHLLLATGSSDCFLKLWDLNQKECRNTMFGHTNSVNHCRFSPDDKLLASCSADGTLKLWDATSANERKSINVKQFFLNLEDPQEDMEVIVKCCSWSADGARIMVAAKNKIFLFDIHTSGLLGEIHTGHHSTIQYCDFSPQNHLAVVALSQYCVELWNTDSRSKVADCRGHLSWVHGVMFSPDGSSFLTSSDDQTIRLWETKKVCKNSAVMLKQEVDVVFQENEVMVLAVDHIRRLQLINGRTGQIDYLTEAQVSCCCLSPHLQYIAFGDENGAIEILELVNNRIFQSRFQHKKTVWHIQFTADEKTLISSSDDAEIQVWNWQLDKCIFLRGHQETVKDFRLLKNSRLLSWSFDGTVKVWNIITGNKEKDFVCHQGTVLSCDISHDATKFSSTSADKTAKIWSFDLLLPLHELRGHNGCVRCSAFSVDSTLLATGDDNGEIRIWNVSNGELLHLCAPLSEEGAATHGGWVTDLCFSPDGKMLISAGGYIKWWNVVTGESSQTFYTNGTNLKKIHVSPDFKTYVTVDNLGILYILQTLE
The assay can be described thus: SAR analysis of small molecule Activators of Apaf-1 in a Fluorescent assay. Format: functional. Conditions: read-out: EC50_Mean.

Assay [18] deals with HEK293. The assay can be described thus: optical interference in Abeta FP readout, dose response, artefact control for IDE activator project, biochemical, fluorescence polarization (AID 588442). In kind it is functional, cell-based. As to conditions: Homo sapiens.
Assay [19] has as its system HEK293. The assay can be described thus: HEK cell cytotoxicity by LDH release, dose response, cytotoxicity control for IDE activator project, fluorescence, HEK cells (AID 588440).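 Also: cytotoxicity by LDH release measuring loss of membrane integrity.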 In kind it is functional, cell-based. Conditions: Homo sapiens. For orientation: LDH in the medium is a marker of cell lysis.
Assay [20] deals with T5, Insulin-degrading enzyme (Homo sapiens, UniProt P14735).
T5 sequence (P14735 whole entry): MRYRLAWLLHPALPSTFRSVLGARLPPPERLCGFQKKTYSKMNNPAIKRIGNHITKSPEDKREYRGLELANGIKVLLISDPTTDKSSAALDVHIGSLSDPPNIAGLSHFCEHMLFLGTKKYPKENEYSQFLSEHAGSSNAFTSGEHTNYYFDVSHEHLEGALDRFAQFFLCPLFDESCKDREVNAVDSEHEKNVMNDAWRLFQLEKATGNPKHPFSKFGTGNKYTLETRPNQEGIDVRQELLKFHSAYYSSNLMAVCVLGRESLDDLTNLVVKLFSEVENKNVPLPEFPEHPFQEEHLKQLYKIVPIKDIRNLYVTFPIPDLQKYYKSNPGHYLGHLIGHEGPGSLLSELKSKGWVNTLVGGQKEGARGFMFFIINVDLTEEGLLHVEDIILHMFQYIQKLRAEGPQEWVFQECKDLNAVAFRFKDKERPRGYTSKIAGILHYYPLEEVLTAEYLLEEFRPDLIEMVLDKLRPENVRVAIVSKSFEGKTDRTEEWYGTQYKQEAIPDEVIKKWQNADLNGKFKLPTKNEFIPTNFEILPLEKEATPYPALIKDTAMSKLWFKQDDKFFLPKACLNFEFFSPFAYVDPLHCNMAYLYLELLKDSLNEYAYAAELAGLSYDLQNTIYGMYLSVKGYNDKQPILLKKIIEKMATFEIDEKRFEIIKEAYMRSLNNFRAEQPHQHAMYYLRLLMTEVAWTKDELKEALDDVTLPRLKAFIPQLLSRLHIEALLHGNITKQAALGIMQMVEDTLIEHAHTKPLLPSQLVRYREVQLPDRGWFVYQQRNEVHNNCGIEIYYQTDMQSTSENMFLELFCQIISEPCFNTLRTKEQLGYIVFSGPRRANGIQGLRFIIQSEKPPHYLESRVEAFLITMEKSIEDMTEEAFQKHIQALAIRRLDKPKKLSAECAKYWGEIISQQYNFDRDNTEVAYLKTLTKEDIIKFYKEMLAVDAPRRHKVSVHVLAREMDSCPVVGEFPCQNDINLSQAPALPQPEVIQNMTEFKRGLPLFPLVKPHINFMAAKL
The assay can be described thus: activators of endogenous IDE in HEK cells, dose response, cell-based, fluorescence polarization (AID 588439). Format: functional.

The target in assay [21] is T5, Insulin-degrading enzyme. The assay can be described thus: activators of recombinant IDE enzyme, dose response, counter-screen for IDE activator project, biochemical, fluorescence polarization (AID 588681).
Assay [22] addresses T4, Apoptotic protease-activating factor 1. Format: functional.
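For EC50 Mean in this document: caspase-3 cleavage of fluorogenic Rh110 DEVD substrate downstream of apoptosome activation.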

Sequence of Melanocortin receptor 4 (P32245 whole entry): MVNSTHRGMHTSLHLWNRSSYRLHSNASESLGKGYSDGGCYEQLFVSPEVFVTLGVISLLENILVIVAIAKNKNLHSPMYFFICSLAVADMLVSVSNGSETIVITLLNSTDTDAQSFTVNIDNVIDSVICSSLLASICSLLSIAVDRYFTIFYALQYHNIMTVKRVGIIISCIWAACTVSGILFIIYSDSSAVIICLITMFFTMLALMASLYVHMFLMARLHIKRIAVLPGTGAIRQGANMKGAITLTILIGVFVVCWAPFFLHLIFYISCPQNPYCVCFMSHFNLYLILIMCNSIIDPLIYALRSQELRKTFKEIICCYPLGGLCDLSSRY
Sequence of Dual specificity protein kinase CLK4 (Q9HAZ1 whole entry): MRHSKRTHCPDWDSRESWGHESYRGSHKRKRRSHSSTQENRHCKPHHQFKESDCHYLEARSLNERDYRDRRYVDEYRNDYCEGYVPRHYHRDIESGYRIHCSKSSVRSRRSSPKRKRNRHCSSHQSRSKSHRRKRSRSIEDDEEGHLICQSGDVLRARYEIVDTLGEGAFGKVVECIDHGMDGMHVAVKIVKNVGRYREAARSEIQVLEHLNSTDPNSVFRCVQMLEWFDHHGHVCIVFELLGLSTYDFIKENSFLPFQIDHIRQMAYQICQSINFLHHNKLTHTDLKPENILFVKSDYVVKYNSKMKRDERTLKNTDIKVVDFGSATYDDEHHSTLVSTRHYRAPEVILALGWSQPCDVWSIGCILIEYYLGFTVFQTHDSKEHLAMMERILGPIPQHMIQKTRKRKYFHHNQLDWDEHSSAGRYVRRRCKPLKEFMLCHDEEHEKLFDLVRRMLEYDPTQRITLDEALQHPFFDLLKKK
Sequence of Glycogen synthase kinase-3 beta (P49841 whole entry): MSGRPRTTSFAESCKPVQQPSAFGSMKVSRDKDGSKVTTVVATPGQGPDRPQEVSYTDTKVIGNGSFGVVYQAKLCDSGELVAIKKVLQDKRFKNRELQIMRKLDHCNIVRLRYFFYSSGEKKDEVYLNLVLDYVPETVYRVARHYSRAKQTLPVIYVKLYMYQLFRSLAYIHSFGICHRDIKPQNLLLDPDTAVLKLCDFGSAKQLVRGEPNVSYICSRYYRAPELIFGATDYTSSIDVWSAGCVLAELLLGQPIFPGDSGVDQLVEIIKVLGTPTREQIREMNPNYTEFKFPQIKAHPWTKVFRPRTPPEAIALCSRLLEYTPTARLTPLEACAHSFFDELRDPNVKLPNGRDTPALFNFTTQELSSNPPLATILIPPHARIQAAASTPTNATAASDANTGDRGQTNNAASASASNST
Sequence of Mitogen-activated protein kinase kinase kinase kinase 4 (O95819 whole entry): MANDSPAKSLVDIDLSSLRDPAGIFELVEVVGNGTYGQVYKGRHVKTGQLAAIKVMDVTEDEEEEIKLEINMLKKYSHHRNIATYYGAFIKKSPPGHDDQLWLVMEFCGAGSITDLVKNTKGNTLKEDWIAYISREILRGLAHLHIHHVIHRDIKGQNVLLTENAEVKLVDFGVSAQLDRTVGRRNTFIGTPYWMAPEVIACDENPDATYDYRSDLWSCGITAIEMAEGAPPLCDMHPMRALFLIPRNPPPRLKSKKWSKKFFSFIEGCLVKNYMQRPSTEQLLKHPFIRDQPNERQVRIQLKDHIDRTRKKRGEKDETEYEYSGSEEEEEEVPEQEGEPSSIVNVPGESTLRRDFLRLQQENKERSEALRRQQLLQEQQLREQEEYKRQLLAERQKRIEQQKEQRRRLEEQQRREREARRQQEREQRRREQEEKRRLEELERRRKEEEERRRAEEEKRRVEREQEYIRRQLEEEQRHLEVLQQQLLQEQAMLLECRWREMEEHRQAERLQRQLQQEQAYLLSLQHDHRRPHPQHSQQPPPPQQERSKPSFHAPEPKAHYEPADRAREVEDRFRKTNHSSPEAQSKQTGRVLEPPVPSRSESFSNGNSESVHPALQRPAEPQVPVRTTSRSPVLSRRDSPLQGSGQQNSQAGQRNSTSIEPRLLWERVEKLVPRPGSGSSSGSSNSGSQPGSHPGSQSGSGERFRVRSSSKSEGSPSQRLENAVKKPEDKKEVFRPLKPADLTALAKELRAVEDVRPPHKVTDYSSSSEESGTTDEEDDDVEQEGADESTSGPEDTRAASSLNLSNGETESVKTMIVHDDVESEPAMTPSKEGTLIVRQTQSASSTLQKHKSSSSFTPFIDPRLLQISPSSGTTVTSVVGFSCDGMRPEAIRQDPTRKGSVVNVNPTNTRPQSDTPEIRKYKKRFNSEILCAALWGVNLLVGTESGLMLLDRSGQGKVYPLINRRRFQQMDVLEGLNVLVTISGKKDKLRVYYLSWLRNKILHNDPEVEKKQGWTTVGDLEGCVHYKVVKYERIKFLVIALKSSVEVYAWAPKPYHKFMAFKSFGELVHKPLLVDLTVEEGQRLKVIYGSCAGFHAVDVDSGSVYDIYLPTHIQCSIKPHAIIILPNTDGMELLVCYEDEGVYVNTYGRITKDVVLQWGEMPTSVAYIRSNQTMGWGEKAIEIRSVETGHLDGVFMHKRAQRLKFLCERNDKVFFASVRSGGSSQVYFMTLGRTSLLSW
Sequence of 26S proteasome non-ATPase regulatory subunit 14 (O00487 whole entry): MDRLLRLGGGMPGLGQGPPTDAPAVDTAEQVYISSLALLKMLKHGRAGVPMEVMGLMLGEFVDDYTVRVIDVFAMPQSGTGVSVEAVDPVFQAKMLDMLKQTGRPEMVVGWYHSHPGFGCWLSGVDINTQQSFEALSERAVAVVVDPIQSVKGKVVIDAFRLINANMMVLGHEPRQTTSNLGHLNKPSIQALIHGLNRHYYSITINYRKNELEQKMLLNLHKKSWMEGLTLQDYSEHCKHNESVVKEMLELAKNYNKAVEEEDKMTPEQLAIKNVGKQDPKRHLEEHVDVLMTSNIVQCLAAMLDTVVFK
Sequence of MAP kinase-interacting serine/threonine-protein kinase 2 (Q9HBH9 whole entry): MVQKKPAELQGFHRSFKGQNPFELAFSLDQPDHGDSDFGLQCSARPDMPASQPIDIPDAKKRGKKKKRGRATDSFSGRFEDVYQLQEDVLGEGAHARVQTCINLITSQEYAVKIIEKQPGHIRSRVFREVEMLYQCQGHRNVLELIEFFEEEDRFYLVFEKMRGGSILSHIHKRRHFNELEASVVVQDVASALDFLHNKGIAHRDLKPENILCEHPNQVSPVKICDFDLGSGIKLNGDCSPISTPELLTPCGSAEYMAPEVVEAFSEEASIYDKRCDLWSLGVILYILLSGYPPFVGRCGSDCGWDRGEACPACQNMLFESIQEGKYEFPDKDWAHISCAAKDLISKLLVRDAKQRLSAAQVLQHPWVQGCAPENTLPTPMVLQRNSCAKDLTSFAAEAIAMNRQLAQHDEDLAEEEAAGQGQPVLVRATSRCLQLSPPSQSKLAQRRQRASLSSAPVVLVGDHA
Sequence of Serine/threonine-protein kinase pim-1 (P11309 whole entry): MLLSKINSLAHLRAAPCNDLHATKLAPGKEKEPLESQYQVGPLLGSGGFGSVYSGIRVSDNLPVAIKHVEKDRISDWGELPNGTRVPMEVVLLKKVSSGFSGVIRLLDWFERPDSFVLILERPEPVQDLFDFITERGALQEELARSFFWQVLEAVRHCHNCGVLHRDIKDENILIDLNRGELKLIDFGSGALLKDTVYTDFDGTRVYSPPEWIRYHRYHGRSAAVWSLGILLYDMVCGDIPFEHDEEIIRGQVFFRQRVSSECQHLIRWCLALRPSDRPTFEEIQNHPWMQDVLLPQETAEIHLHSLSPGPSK
Sequence of Homeodomain-interacting protein kinase 2 (Q9H2X6 whole entry): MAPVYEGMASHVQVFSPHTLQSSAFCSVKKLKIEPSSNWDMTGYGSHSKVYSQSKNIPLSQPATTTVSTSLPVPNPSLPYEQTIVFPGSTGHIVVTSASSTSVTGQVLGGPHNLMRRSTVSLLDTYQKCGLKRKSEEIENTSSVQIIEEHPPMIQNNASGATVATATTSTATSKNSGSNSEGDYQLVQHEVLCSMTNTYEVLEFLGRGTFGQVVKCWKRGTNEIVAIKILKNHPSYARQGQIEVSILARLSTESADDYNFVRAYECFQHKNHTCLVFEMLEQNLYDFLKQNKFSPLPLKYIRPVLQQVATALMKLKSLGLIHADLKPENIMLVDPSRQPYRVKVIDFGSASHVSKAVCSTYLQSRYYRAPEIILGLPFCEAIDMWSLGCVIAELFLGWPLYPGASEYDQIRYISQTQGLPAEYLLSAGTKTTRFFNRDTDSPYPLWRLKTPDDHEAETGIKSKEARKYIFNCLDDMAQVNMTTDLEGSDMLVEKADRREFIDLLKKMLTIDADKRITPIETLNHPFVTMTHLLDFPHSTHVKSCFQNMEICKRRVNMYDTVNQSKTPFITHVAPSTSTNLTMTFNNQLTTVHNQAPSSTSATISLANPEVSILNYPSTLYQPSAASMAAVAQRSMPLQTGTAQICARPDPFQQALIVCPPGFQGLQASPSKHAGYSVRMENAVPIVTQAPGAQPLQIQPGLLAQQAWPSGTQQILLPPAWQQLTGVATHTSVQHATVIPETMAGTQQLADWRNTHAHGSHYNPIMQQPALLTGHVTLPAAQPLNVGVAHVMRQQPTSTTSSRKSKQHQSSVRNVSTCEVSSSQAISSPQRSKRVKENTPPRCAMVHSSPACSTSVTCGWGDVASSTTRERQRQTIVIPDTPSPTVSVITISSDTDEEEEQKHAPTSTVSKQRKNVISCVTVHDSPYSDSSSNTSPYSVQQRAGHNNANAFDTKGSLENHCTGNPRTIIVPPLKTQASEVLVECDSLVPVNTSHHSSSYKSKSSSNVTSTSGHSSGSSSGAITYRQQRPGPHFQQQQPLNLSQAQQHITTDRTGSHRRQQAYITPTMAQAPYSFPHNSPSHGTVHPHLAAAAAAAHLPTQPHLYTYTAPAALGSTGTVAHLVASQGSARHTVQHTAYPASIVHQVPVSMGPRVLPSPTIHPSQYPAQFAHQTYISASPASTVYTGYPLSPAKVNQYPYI

On to `CCN(CC(=O)Nc1c(F)cccc1F)C(=O)CCc1nc2sc3c(c2c(=O)[nH]1)CCCC3`, for which the IC50 in assay [1] is 4.4 µM (active); on Prothrombin, 85.3 µM (active); in assay [2], 19.9 µM (active); in assay [3], > 100 µM (inactive).
As to `Cc1cc(NS(=O)(=O)c2ccc(NC(=O)c3ccc(Cl)cc3Cl)cc2)no1`, the values for the IC50 in assay [4] and in [5] were 4.47 µM (active) and 5.81 µM (active), respectively.
For `COc1cc2c(cc1NC(=O)COC(=O)CNS(=O)(=O)c1ccc(C)cc1)oc1ccccc12`, the IC50 (on Melanocortin receptor 4; in [6]) was > 64.6 µM (inactive) throughout.
`O=C(On1c(-c2ccccc2)nc2ccccc2c1=O)c1ccco1`: the IC50 was 8.91 µM (active) in [4] and 4.57 µM (active) in assay [5]. Also, the EC50 in assay [7] was > 50 µM (active).
For `Nc1n[nH]c2ccc(-c3cc(Cc4ccccc4)no3)cc12`, the Ki was 0.501 µM (active) in [8]; 0.316 µM (active) in [9]; > 10 µM (inactive) in [10]; 1 µM (active) in assay [11]; 0.0316 µM (active) in [12]; 0.158 µM (active) in assay [13]. The Ki in [14] is 0.01 µM (active); in assay [15], 6.31 µM (active); in [16], 1.58 µM (active).
On to `Cc1ccc(S(=O)(=O)NCC(=O)OCc2nnc(-c3ccccc3)o2)cc1`, for which the IC50 (at Melanocortin receptor 4; in [6]) was > 64.6 µM (inactive) throughout.
As to `CCOc1ccc(C(=O)CC(C(=O)O)c2cn(C)c3ccccc23)cc1` (stereo not drawn), the EC50 in assay [17] was > 100 µM (inactive).
For `CCCCNc1c(-c2ccc(SC(C)CC)cc2)nc2cnccn12` (stereo not drawn), the EC50 in the assay with HEK293 [18] was > 55.9 µM (inactive); on Insulin-degrading enzyme [20] it was > 54.7 µM (inactive); at Insulin-degrading enzyme [21] it was > 54.7 µM (inactive). Besides, the IC50 in the assay with HEK293 [19] was 27.4 µM (inactive); in assay [22], 63.1 µM (active).
